In the experiment the test system is P388 leukemia ip, CD2F1 mice, survival T/C. The experiment can be described thus: NCI In Vivo Anticancer Drug Screen. Data for tumor model P388 Leukemia (intraperitoneal) in CD2F1 (CDF1) mice. The conditions noted are these: endpoint: median survival time, higher = longer survival. In outline: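 Mice carrying the transplanted tumor received test compound or vehicle. Survival was recorded in each group, and the value is the treated-group measurement divided by that of the vehicle-treated control group.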

Where [1] appears, read: dose: 50.0 mg/kg/injection, schedule: Q01DX009 (ip), vehicle: saline with Tween-80.
[2] abbreviates: dose: 100.0 mg/kg/injection, schedule: Q01DX009 (ip), vehicle: saline with Tween-80.
Where [3] appears, read: dose: 200.0 mg/kg/injection, schedule: Q01DX009 (ip), vehicle: saline with Tween-80.
The mark [4] stands for this setting: dose: 50.0 mg/kg/injection, schedule: Q01DX009 (ip), vehicle: Klucel (hydroxypropylcellulose) (HPC).
The mark [5] stands for this setting: dose: 50.0 mg/kg/injection, schedule: Q01DX009 (ip), vehicle: saline.
[6] abbreviates: dose: 100.0 mg/kg/injection, schedule: Q01DX009 (ip), vehicle: Klucel (hydroxypropylcellulose) (HPC).
The mark [7] stands for this setting: dose: 100.0 mg/kg/injection, schedule: Q01DX009 (ip), vehicle: saline.
Setting [8] is: dose: 200.0 mg/kg/injection, schedule: Q01DX009 (ip), vehicle: Klucel (hydroxypropylcellulose) (HPC).
The mark [9] stands for this setting: dose: 200.0 mg/kg/injection, schedule: Q01DX009 (ip), vehicle: saline.
[10] abbreviates: dose: 50.0 mg/kg/injection, schedule: Q01DX005 (ip), vehicle: saline.
Where [11] appears, read: dose: 100.0 mg/kg/injection, schedule: Q01DX005 (ip), vehicle: saline.
The mark [12] stands for this setting: dose: 200.0 mg/kg/injection, schedule: Q01DX005 (ip), vehicle: saline.
[13] abbreviates: dose: 50.0 mg/kg/injection, schedule: Q01DX005 (ip), vehicle: saline with Tween-80.
[14] abbreviates: dose: 100.0 mg/kg/injection, schedule: Q01DX005 (ip), vehicle: saline with Tween-80.
Setting [15] is: dose: 200.0 mg/kg/injection, schedule: Q01DX005 (ip), vehicle: saline with Tween-80.

Structures are written as SMILES. “And” between values parts separate entries of the source, which are not always exact repeats. Equal entries are not always repeated. Toxic doses and inconclusive results are not listed.

Regarding `CCN(CC)CCNc1ccc(COC(=O)NC)c2oc3ccc(OS(=O)(=O)c4ccc(C)cc4)cc3c(=O)c12`, the T/C is 89 % of control (dose: 25.0 mg/kg/injection, schedule: Q01DX005 (ip), vehicle: water); 93 % of control (dose: 50.0 mg/kg/injection, schedule: Q01DX005 (ip), vehicle: water); 90 % of control (dose: 100.0 mg/kg/injection, schedule: Q01DX005 (ip), vehicle: water); 93 % of control (dose: 200.0 mg/kg/injection, schedule: Q01DX005 (ip), vehicle: water).
Turning to `Nc1nc(N)c(N=O)c(Nc2ccccc2)n1`, the T/C under setting [1] is 97 % of control, the T/C under setting [2] is 99 % of control and the T/C under setting [3] was 96 % of control.
With `CCS(=O)(=O)OCCCNCCCOS(=O)(=O)CC`, the T/C (dose: 12.5 mg/kg/injection, schedule: Q01DX001 (ip), vehicle: saline) was 124 % of control; the T/C (dose: 12.5 mg/kg/injection, schedule: Q04DX003 (ip), vehicle: saline) is 154 % of control; the T/C (dose: 25.0 mg/kg/injection, schedule: Q01DX001 (ip), vehicle: saline) was 86 % of control; the T/C (dose: 25.0 mg/kg/injection, schedule: Q01DX009 (ip), vehicle: saline) was 215 % of control; the T/C (dose: 25.0 mg/kg/injection, schedule: Q04DX003 (ip), vehicle: saline) is 160 % of control; the T/C under setting [4] is 201 % of control. Moreover, the T/C is, setting by setting: under setting [5], 268 % of control; (dose: 50.0 mg/kg/injection, schedule: Q04DX003 (ip), vehicle: saline) 193 % of control; (dose: 100.0 mg/kg/injection, schedule: Q01DX001 (ip), vehicle: saline) 156 % of control; under setting [6], 199 % of control; under setting [7], 277 % of control; (dose: 100.0 mg/kg/injection, schedule: Q04DX003 (ip), vehicle: saline) 209 % of control. In addition, the T/C runs as follows: (dose: 200.0 mg/kg/injection, schedule: Q01DX001 (ip), vehicle: saline) 173 % of control; under setting [8], 94 % of control; under setting [9], 175 % of control; (dose: 200.0 mg/kg/injection, schedule: Q04DX003 (ip), vehicle: saline) 272 % of control; (dose: 400.0 mg/kg/injection, schedule: Q01DX001 (ip), vehicle: saline) 181 % of control.
For the compound `C=C(C)C(C(=O)OCC)C(=O)OCC`, the T/C runs as follows: under setting [1], 101 % of control; under setting [2], 107 % of control; under setting [3], 110 % of control.
With `COC1C(OC(N)=O)C(O)C(Oc2ccc3c(O)c(NC(=O)c4ccc(O)c(CC=C(C)C)c4)c(=O)oc3c2C)OC1(C)C` (configuration not stated), the T/C runs as follows: (dose: 25.0 mg/kg/injection, schedule: Q01DX009 (ip), vehicle: Klucel (hydroxypropylcellulose) (HPC)) 100 % of control; (dose: 50.0 mg/kg/injection, schedule: Q01DX005 (ip), vehicle: Klucel (hydroxypropylcellulose) (HPC)) 109 % of control; under setting [4], 95 % of control; (dose: 100.0 mg/kg/injection, schedule: Q01DX005 (ip), vehicle: Klucel (hydroxypropylcellulose) (HPC)) 106 % of control; under setting [6], 100 % of control; (dose: 200.0 mg/kg/injection, schedule: Q01DX005 (ip), vehicle: Klucel (hydroxypropylcellulose) (HPC)) 109 % of control. For the same compound, the T/C under setting [8] was 103 % of control.
For the compound `CN1CCC1=O`, the T/C reads like this: under setting [5], 105 % of control; under setting [7], 110 % of control; under setting [9], 97 % of control.
With `CCN(Cc1cccc(S(=O)(=O)O)c1)c1ccc(C(=C2C=CC(=[N+](CC)Cc3cccc(S(=O)(=O)O)c3)C=C2)c2ccc(S(=O)(=O)O)cc2)cc1`, the T/C is 100 % of control under setting [10], 99 % of control under setting [11] and 94 % of control under setting [12].
As to `O=C1OC(c2ccccc2)(c2ccc(Cl)cc2)CC1/C=C(\c1ccccc1)c1ccc(Cl)cc1` (configuration not stated), the T/C is 96 % of control under setting [13], 90 % of control under setting [14] and 91 % of control under setting [15].
In the case of `O=C(O)/C=C\C(=O)ONCc1ccccc1`, the T/C under setting [13] was 106 % of control, the T/C under setting [14] was 106 % of control and the T/C under setting [15] is 106 % of control.
As for `O=C1CC2CC(=O)C(S(=O)c3ccccc3)C2C1` (configuration not stated), the T/C is, setting by setting: (dose: 60.0 mg/kg/injection, schedule: Q01DX005 (ip), vehicle: saline with Tween-80) 96 % of control; (dose: 120.0 mg/kg/injection, schedule: Q01DX005 (ip), vehicle: saline with Tween-80) 99 % of control.
Consider `C[Si]1(C)N[Si](C)(C)N([Si](C)(C)C)[Si](C)(C)N1`, for which the T/C by setting is: under setting [13], 93 % of control; under setting [14], 101 % of control; under setting [15], 109 % of control.
`c1cc2c(ncn3nnnc23)[nH]1`: the T/C (dose: 6.25 mg/kg/injection, schedule: Q01DX009 (ip), vehicle: water) was 91 % of control; the T/C (dose: 12.5 mg/kg/injection, schedule: Q01DX009 (ip), vehicle: water) is 107 % of control; the T/C (dose: 25.0 mg/kg/injection, schedule: Q01DX009 (ip), vehicle: water) was 108 % of control; the T/C (dose: 50.0 mg/kg/injection, schedule: Q01DX009 (ip), vehicle: water) was 109 % of control; the T/C (dose: 100.0 mg/kg/injection, schedule: Q01DX009 (ip), vehicle: water) was 118 % of control.
As for `CC(C)(C#N)NCCCNC(C)(C)C#N`, the T/C is, setting by setting: under setting [10], 100 % of control; under setting [11], 97 % of control; under setting [12], 95 % of control.
With `Cc1ccc(S(=O)(=O)Nn2nnnc2N)cc1`, the T/C by setting is: (dose: 100.0 mg/kg/injection, schedule: Q01DX001 (ip), vehicle: Klucel (hydroxypropylcellulose) (HPC)) 102 % of control; (dose: 200.0 mg/kg/injection, schedule: Q01DX001 (ip), vehicle: Klucel (hydroxypropylcellulose) (HPC)) 100 % of control; (dose: 400.0 mg/kg/injection, schedule: Q01DX001 (ip), vehicle: Klucel (hydroxypropylcellulose) (HPC)) 100 % of control.
On to `Cc1cccc(Nc2nnc3nc(-c4ccccc4)c(-c4ccccc4)nn23)c1`, for which the T/C is, setting by setting: (dose: 25.0 mg/kg/injection, schedule: Q01DX001 (ip), vehicle: saline with Tween-80) 94 % of control; (dose: 50.0 mg/kg/injection, schedule: Q01DX001 (ip), vehicle: saline with Tween-80) 100 % of control; (dose: 100.0 mg/kg/injection, schedule: Q01DX001 (ip), vehicle: saline with Tween-80) 91 % of control and 95 % of control.
Consider `CS(=O)(=O)c1cc([N+](=O)[O-])cc([N+](=O)[O-])c1Cl`, for which the T/C was 109 % of control (dose: 2.5 mg/kg/injection, schedule: Q01DX009 (ip), vehicle: saline with Tween-80) and 90 % of control (dose: 5.0 mg/kg/injection, schedule: Q01DX009 (ip), vehicle: saline with Tween-80).
As to `Cc1nc2ccccc2c(C(=O)NO)[n+]1[O-]`, the T/C reads like this: under setting [1], 104 % of control; under setting [2], 100 % of control; under setting [3], 103 % of control.
`CCOC(=O)C1OC(n2cnc3c(N)ncnc32)C(O)C1O` (configuration not stated): the T/C runs as follows: under setting [1], 96 % of control; under setting [5], 103 % of control; under setting [2], 98 % of control; under setting [7], 100 % of control and 106 % of control; under setting [3], 124 % of control; under setting [9], 101 % of control and 106 % of control. Also, the T/C is, setting by setting: (dose: 400.0 mg/kg/injection, schedule: Q01DX009 (ip), vehicle: saline with Tween-80) 117 % of control; (dose: 400.0 mg/kg/injection, schedule: Q01DX009 (ip), vehicle: saline) 111 % of control.
Regarding `CC(C)(C)c1cc2c(c(C(C)(C)C)c1)[O][Sb]([c]1ccccc1)([c]1ccccc1)([c]1ccccc1)[NH]2`, the T/C was 110 % of control under setting [1] and 115 % of control under setting [2].
With `CCCCOCc1c(-c2ccccc2)sc2ccccc2c1=O`, the T/C under setting [13] is 97 % of control, the T/C under setting [14] is 102 % of control and the T/C under setting [15] was 100 % of control.
Regarding `CN(C)C(=O)On1cc(Cl)cc1C#N`, the T/C runs as follows: (dose: 6.25 mg/kg/injection, schedule: Q04DX003 (ip), vehicle: Klucel (hydroxypropylcellulose) (HPC)) 102 % of control; (dose: 12.5 mg/kg/injection, schedule: Q04DX003 (ip), vehicle: Klucel (hydroxypropylcellulose) (HPC)) 98 % of control; (dose: 25.0 mg/kg/injection, schedule: Q04DX003 (ip), vehicle: Klucel (hydroxypropylcellulose) (HPC)) 100 % of control; (dose: 75.0 mg/kg/injection, schedule: Q04DX003 (ip), vehicle: Klucel (hydroxypropylcellulose) (HPC)) 98 % of control.
